According to patent US12404265B2, “Substituted pyridine derivatives as SARM1 inhibitors” (Nura Bio, Inc., priority 2020, dated 2025):

Molecular target: T1, human SARM1(50-724) (Homo sapiens, UniProt Q6SZW1)
T1 construct: 40 nM human SARM1(50-724)
T1 sequence (Q6SZW1 50-724): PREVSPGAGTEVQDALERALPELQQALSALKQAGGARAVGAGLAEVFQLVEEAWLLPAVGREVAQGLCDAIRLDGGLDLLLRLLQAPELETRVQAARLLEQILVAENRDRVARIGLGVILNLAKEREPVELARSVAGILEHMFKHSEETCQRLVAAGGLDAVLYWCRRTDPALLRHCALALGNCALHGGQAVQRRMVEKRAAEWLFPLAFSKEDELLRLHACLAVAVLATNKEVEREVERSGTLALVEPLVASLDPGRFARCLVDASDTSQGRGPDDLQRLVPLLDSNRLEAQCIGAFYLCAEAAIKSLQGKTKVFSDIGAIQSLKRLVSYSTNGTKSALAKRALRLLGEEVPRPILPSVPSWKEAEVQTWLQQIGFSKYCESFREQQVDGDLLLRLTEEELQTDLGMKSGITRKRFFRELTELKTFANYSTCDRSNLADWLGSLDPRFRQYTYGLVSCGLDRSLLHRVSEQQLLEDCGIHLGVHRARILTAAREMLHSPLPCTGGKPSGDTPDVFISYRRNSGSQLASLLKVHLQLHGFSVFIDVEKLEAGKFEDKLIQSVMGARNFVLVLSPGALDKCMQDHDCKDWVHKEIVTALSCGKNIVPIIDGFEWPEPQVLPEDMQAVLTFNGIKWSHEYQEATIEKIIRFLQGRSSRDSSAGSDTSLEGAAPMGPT
Test: SARM1 NADase biochemical assay (HPLC of NAD and NAM)
Conditions: 40 nM human SARM1(50-724), 0.3 mM NMN, 20 μM NAD, 60 minutes room temperature; dose-response from 100 μM, 1:3 dilution
Method: Each reaction was run at a volume of 20 μL containing 50 μM compound (dissolved in DMSO; final concentration of DMSO is 1% v/v), 40 nM human SARM1(50-724), 0.3 mM NMN, 20 μM NAD, 1 mM TCEP, 25 mM HEPES pH 7.4, 10 mM KCl and 10 mM MgCl2. The reaction was incubated at room temperature for 60 minutes and quenched with 20 μL of 0.4% formic acid. The samples were run on Agilent HPLC 1260 Infinity II with Synergi 2.5 μM Fusion-RP 100 Å (100×3.0 mm) LC column from Phenomenex. Total run time for each sample was 4 minutes. The run was isocratic with 1.5% methanol in 40 mM ammonium acetate pH 6.0. Samples were run at a flow rate of 0.8 mL/min at 55° C. Peak areas of NAD and NAM were determined using OpenLAB CDS (Chem Station edition) software. For dose-response, the compound was diluted serially 1:3 in DMSO and added to the reaction starting at a final compound concentration of 100 μM in 1% DMSO.

Compound	IC50 [nM]
COc1ccc(CCC(=O)Nc2[nH]nc(-c3ccncc3)c2C)cc1 [Example 27, 3-(4-Methoxyphenyl)-N-(4-methyl-3-(pyridin-4-yl)-1H-pyrazol-5-yl)propanamide]	1000 to 10000
Cc1c(-c2ccncc2)n[nH]c1NC(=O)CCc1ccc2ccccc2c1 [Example 28, N-(4-Methyl-3-(pyridin-4-yl)-1H-pyrazol-5-yl)-3-(naphthalen-2-yl)propanamide]	1000 to 10000
Cc1c(-c2ccncc2)n[nH]c1NC(=O)CCc1cccc2ccccc12 [Example 29, N-(4-Methyl-3-(pyridin-4-yl)-1H-pyrazol-5-yl)-3-(naphthalen-1-yl)propanamide]	1000 to 10000
Cc1c(-c2ccncc2)n[nH]c1NC(=O)CCc1cccc(Cl)c1 [Example 30, 3-(3-Chlorophenyl)-N-(4-methyl-3-(pyridin-4-yl)-1H-pyrazol-5-yl)propanamide]	< 1000
Cc1c(-c2ccncc2)n[nH]c1NC(=O)CCc1ccc(Cl)c(Cl)c1 [Example 31, 3-(3,4-Dichlorophenyl)-N-(4-methyl-3-(pyridin-4-yl)-1H-pyrazol-5-yl)propanamide]	< 1000
Cc1c(-c2ccncc2)n[nH]c1NC(=O)CCc1ccc(C(F)(F)F)cc1 [Example 32, N-(4-Methyl-3-(pyridin-4-yl)-1H-pyrazol-5-yl)-3-(4-(trifluoromethyl)phenyl)propanamide]	< 1000
Cc1c(-c2ccncc2)n[nH]c1NC(=O)CCc1ccc(F)cc1 [Example 33, 3-(4-Fluorophenyl)-N-(4-methyl-3-(pyridin-4-yl)-1H-pyrazol-5-yl)propanamide]	< 1000
CCc1ccc(CCC(=O)Nc2[nH]nc(-c3ccncc3)c2C)cc1 [Example 34, 3-(4-Ethylphenyl)-N-(4-methyl-3-(pyridin-4-yl)-1H-pyrazol-5-yl)propanamide]	1000 to 10000
Cc1c(-c2ccncc2)n[nH]c1NC(=O)CCc1ccc(Br)cc1 [Example 35, 3-(4-Bromophenyl)-N-(4-methyl-3-(pyridin-4-yl)-1H-pyrazol-5-yl)propanamide]	< 1000
Cc1c(-c2ccncc2)n[nH]c1NC(=O)CCc1ccc(C#N)cc1 [Example 36, 3-(4-Cyanophenyl)-N-(4-methyl-3-(pyridin-4-yl)-1H-pyrazol-5-yl)propanamide]	< 1000
Cc1c(-c2ccncc2)n[nH]c1NC(=O)CCc1ccc([N+](=O)[O-])cc1 [Example 37, N-(4-Methyl-3-(pyridin-4-yl)-1H-pyrazol-5-yl)-3-(4-nitrophenyl)propanamide]	< 1000
Cc1c(-c2ccncc2)n[nH]c1NC(=O)CCc1ccc(Cl)nc1 [Example 38, 3-(6-Chloropyridin-3-yl)-N-(4-methyl-3-(pyridin-4-yl)-1H-pyrazol-5-yl)propanamide]	< 1000
Cc1c(-c2ccncc2)n[nH]c1NC(=O)CCc1ccc(Cl)cn1 [Example 39, 3-(5-Chloropyridin-2-yl)-N-(4-methyl-3-(pyridin-4-yl)-1H-pyrazol-5-yl)propanamide]	1000 to 10000
Cc1c(-c2ccncc2)n[nH]c1NC(=O)CCc1cc(F)c(Cl)cc1F [Example 40, 3-(4-Chloro-2,5-difluorophenyl)-N-(4-methyl-3-(pyridin-4-yl)-1H-pyrazol-5-yl)propanamide]	< 1000
Cc1c(-c2ccncc2)n[nH]c1NC(=O)CCc1ccc(Cl)cc1F [Example 41, 3-(4-Chloro-2-fluorophenyl)-N-(4-methyl-3-(pyridin-4-yl)-1H-pyrazol-5-yl)propanamide]	< 1000
Cc1cc(Cl)ccc1CCC(=O)Nc1[nH]nc(-c2ccncc2)c1C [Example 42, 3-(4-Chloro-2-methylphenyl)-N-(4-methyl-3-(pyridin-4-yl)-1H-pyrazol-5-yl)propanamide]	< 1000
Cc1cc(CCC(=O)Nc2[nH]nc(-c3ccncc3)c2C)ccc1Cl [Example 43, 3-(4-Chloro-3-methylphenyl)-N-(4-methyl-3-(pyridin-4-yl)-1H-pyrazol-5-yl)propanamide]	< 1000
Cc1c(-c2ccncc2)n[nH]c1NC(=O)CCc1ccc(F)c(F)c1 [Example 44, 3-(3,4-Difluorophenyl)-N-(4-methyl-3-(pyridin-4-yl)-1H-pyrazol-5-yl)propanamide]	< 1000

Compound	IC50 [nM]
Cc1c(-c2ccncc2)n[nH]c1NC(=O)CCc1ccc(F)cc1F [Example 45, 3-(2,4-Difluorophenyl)-N-(4-methyl-3-(pyridin-4-yl)-1H-pyrazol-5-yl)propanamide]	< 1000
Cc1c(-c2ccncc2)n[nH]c1NC(=O)CCc1ccc(I)cc1 [Example 46, 3-(4-Iodophenyl)-N-(4-methyl-3-(pyridin-4-yl)-1H-pyrazol-5-yl)propanamide]	< 1000
Cc1c(-c2ccncc2)n[nH]c1NC(=O)CCc1cc(Cl)c(Cl)c(Cl)c1 [Example 47, N-(4-Methyl-3-(pyridin-4-yl)-1H-pyrazol-5-yl)-3-(3,4,5-trichlorophenyl)propanamide]	< 1000
Cc1c(-c2ccncc2)n[nH]c1NC(=O)CCc1cc(F)c(Cl)c(F)c1 [Example 48, 3-(4-Chloro-3,5-difluorophenyl)-N-(4-methyl-3-(pyridin-4-yl)-1H-pyrazol-5-yl)propanamide]	< 1000
Cc1c(-c2ccncc2)n[nH]c1NC(=O)CCc1ccc(Cl)c(F)c1F [Example 49, 3-(4-Chloro-2,3-difluorophenyl)-N-(4-methyl-3-(pyridin-4-yl)-1H-pyrazol-5-yl)propanamide]	< 1000
Cc1c(-c2ccncc2)n[nH]c1NC(=O)CCc1cc(F)c(F)c(F)c1 [Example 50, N-(4-Methyl-3-(pyridin-4-yl)-1H-pyrazol-5-yl)-3-(3,4,5-trifluorophenyl)propanamide]	< 1000
Cc1c(-c2ccncc2)n[nH]c1NC(=O)CCc1ccc(F)c(F)c1F [Example 51, N-(4-Methyl-3-(pyridin-4-yl)-1H-pyrazol-5-yl)-3-(2,3,4-trifluorophenyl)propanamide]	< 1000
Cc1c(-c2ccncc2)n[nH]c1NC(=O)CCc1cc(F)c(F)cc1F [Example 52, N-(4-Methyl-3-(pyridin-4-yl)-1H-pyrazol-5-yl)-3-(2,4,5-trifluorophenyl)propanamide]	< 1000
Cc1c(-c2ccncc2)n[nH]c1NC(=O)CCc1ccc(C#N)c(F)c1 [Example 53, 3-(4-Cyano-3-fluorophenyl)-N-(4-methyl-3-(pyridin-4-yl)-1H-pyrazol-5-yl)propanamide]	< 1000
Cc1c(-c2ccncc2)n[nH]c1NC(=O)CCc1ccc(OC(F)(F)F)cc1 [Example 54, N-(4-Methyl-3-(pyridin-4-yl)-1H-pyrazol-5-yl)-3-(4-(trifluoromethoxy)phenyl)propanamide]	< 1000
Cc1c(-c2ccncc2)n[nH]c1NC(=O)CCc1ccc(OC(F)F)cc1 [Example 55, 3-(4-(Difluoromethoxy)phenyl)-N-(4-methyl-3-(pyridin-4-yl)-1H-pyrazol-5-yl)propanamide]	< 1000
Cc1c(-c2ccncc2)n[nH]c1NC(=O)CCc1ccc(CF)cc1 [Example 56, 3-(4-(Fluoromethyl)phenyl)-N-(4-methyl-3-(pyridin-4-yl)-1H-pyrazol-5-yl)propanamide]	< 1000
Cc1c(-c2ccncc2)n[nH]c1NC(=O)CCc1ccc(C(F)F)cc1 [Example 57, 3-(4-(Difluoromethyl)phenyl)-N-(4-methyl-3-(pyridin-4-yl)-1H-pyrazol-5-yl)propanamide]	< 1000
Cc1c(-c2ccncc2)n[nH]c1NC(=O)CCc1c(F)c(F)c(F)c(F)c1F [Example 58, N-(4-Methyl-3-(pyridin-4-yl)-1H-pyrazol-5-yl)-3-(perfluorophenyl)propanamide]	< 1000
Cc1c(-c2ccncc2)n[nH]c1NC(=O)CCc1ccc(F)nc1 [Example 59, 3-(6-Fluoropyridin-3-yl)-N-(4-methyl-3-(pyridin-4-yl)-1H-pyrazol-5-yl)propanamide]	< 1000
Cc1c(-c2ccncc2)n[nH]c1NC(=O)CCc1cnc(F)nc1 [Example 60, 3-(2-Fluoropyrimidin-5-yl)-N-(4-methyl-3-(pyridin-4-yl)-1H-pyrazol-5-yl)propanamide]	< 1000
Cc1c(-c2ccncc2)n[nH]c1NC(=O)CCc1cnc(Cl)nc1 [Example 61, 3-(2-Chloropyrimidin-5-yl)-N-(4-methyl-3-(pyridin-4-yl)-1H-pyrazol-5-yl)propanamide]	< 1000
